According to patent US20240109917A1 (ACTELION PHARMACEUTICALS LTD, priority 2020, published 2024):

Biological target: His6-TEV-PDGFRβ (557-1016) (Homo sapiens (Human), UniProt P09619)
Test: PDGFRβ HTRF Assay
Format: biochemical
Settings: read-out: PDGFR HTRF IC50
Outline: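 HTRF KinEASE-TK readout (665/620 nm ratio) of TK-biotin substrate phosphorylation by His-tagged PDGFRβ kinase domain. Enzyme and inhibitor preincubated 30 min, then ATP/substrate added for 3 h at room temperature before 60 min EDTA quench/detection.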

Chain of His6-TEV-PDGFRβ (557-1016) (P09619 557-1016): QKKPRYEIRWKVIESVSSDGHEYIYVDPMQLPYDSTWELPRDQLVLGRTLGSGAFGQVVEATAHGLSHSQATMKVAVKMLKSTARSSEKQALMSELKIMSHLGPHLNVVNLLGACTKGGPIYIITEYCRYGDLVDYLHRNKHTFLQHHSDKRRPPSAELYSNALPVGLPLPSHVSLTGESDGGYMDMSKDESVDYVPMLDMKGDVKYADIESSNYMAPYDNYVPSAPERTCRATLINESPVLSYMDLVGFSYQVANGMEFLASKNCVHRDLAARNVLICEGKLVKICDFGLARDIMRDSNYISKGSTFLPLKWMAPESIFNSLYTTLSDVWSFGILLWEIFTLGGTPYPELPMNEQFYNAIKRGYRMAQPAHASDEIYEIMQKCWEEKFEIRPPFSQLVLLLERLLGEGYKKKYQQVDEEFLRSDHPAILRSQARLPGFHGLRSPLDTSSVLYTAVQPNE

SMILES	IC50 [nM]
COCCn1cc(-c2cn3ncc(C(=O)Nc4cc(NC(=O)CN5CC6CCC5CC6)cnc4C)c3s2)cn1 [Example 331, N-(5-(2-(2-azabicyclo[2.2.2]octan-2-yl)acetamido)-2-methylpyridin-3-yl)-2-(1-(2-methoxyethyl)-1H-pyrazol-4-yl)pyrazolo[5,1-b]thiazole-7-carboxamide]	0.4
COc1ncccc1-c1cn2ncc(C(=O)Nc3cc(NC(=O)CN4CC5(CCOCC5)C4)cnc3C)c2s1 [Example 403, N-(5-(2-(7-oxa-2-azaspiro[3.5]nonan-2-yl)acetamido)-2-methylpyridin-3-yl)-2-(2-methoxypyridin-3-yl)pyrazolo[5,1-b]thiazole-7-carboxamide carboxamide]	0.2
Cc1ncc(C(=O)NCCN2CCCC2(C)C)cc1NC(=O)c1cnn2cc(-c3cnn(Cc4cc(O)no4)c3)sc12 [Example 363, N-(5-((2-(2,2-dimethylpyrrolidin-1-yl)ethyl)carbamoyl)-2-methylpyridin-3-yl)-2-(1-((3-hydroxyisoxazol-5-yl)methyl)-1H-pyrazol-4-yl)pyrazolo[5,1-b]thiazole-7-carboxamide]	1.3
COc1ccncc1-c1cn2ncc(C(=O)Nc3cc(NC(=O)CN4C[C@H](C)O[C@@H](C)C4)cnc3C)c2s1 (relative stereo) [Example 385, N-(5-(2-(trans-2,6-dimethylmorpholino)acetamido)-2-methylpyridin-3-yl)-2-(4-methoxypyridin-3-yl)pyrazolo[5,1-b]thiazole-7-carboxamide]	0.8
Cc1ncc(NC(=O)CN2CC3(CCOCC3)C2)cc1NC(=O)c1cnn2cc(-c3cnn4c3OCCC4)sc12 [Example 406, N-(5-(2-(7-oxa-2-azaspiro[3.5]nonan-2-yl)acetamido)-2-methylpyridin-3-yl)-2-(6,7-dihydro-5H-pyrazolo[5,1-b][1,3]oxazin-3-yl)pyrazolo[5,1-b]thiazole-7-carboxamide]	0.4
Cc1ncc(NC(=O)CN2C[C@H](C)O[C@@H](C)C2)cc1NC(=O)c1cnn2cc(-c3c[nH]nc3C)sc12 (relative stereo) [Example 371, N-(5-(2-(trans-2,6-dimethylmorpholino)acetamido)-2-methylpyridin-3-yl)-2-(3-methyl-1H-pyrazol-4-yl)pyrazolo[5,1-b]thiazole-7-carboxamide]	0.4
COc1ncccc1-c1cn2ncc(C(=O)Nc3cc(NC(=O)CN4CC(F)C4)cnc3C)c2s1 [Example 402, N-(5-(2-(3-fluoroazetidin-1-yl)acetamido)-2-methylpyridin-3-yl)-2-(2-methoxypyridin-3-yl)pyrazolo[5,1-b]thiazole-7-carboxamide]	0.3
Cc1ncc(NC(=O)[C@@H]2CCCN2C(C)C)cc1NC(=O)c1cnn2cc(-c3cnn4c3OCCC4)sc12 [Example 346, (S)-2-(6,7-dihydro-5H-pyrazolo[5,1-b][1,3]oxazin-3-yl)-N-(5-(1-isopropylpyrrolidine-2-carboxamido)-2-methylpyridin-3-yl)pyrazolo[5,1-b]thiazole-7-carboxamide]	0.5
COc1cccc(-c2cn3ncc(C(=O)Nc4cc(NC(=O)CN5CC(C)(C)C5)cnc4C)c3s2)n1 [Example 394, N-(5-(2-(3,3-dimethylazetidin-1-yl)acetamido)-2-methylpyridin-3-yl)-2-(6-methoxypyridin-2-yl)pyrazolo[5,1-b]thiazole-7-carboxamide]	0.2
CCn1nccc1-c1cn2ncc(C(=O)Nc3cc(NC(=O)CN4CC(C)(C)C4)cnc3C)c2s1 [Example 388, N-(5-(2-(3,3-dimethylazetidin-1-yl)acetamido)-2-methylpyridin-3-yl)-2-(1-ethyl-1H-pyrazol-5-yl)pyrazolo[5,1-b]thiazole-7-carboxamide]	0.5
COc1ncccc1-c1cn2ncc(C(=O)Nc3cc(C(=O)NCCN4CC(C)(C)C4)cnc3C)c2s1 [Example 387, N-(5-((2-(3,3-dimethylazetidin-1-yl)ethyl)carbamoyl)-2-methylpyridin-3-yl)-2-(2-methoxypyridin-3-yl)pyrazolo[5,1-b]thiazole-7-carboxamide]	0.2
